The subject of one test is ENR+CD organoids. Nature of the test: Primary screen: ATP (CellTiter-Glo 3D, CTG) cell number/viability, 2.5-D 384-well ENR+CD organoids.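 On all read-outs here: compounds given at plating and again on day 3 over a 6-day differentiation from ENR+CV stem-cell-enriched precursors, ATP measured on day 6, plate median as control.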 The settings on record: primary screen; for Z.CTG: standard z score.
For test [1], the system named is ENR+CD organoids (ISC to Paneth cell differentiation). The experiment in a line: Primary screen: CCh-stimulated lysozyme secretion LYZ.S, 2.5-D 384-well ENR+CD organoid differentiation. The settings on record: primary screen. Type of test: cell-based, mouse. The source says: (§1) High-throughput screening.
Test [2] has the same test system. Nature of the test: Primary screen: basal (non-stimulated) lysozyme secretion LYZ.NS, 2.5-D 384-well ENR+CD organoid differentiation. Type of test: cell-based, mouse.
Text: as §1

[3] abbreviates: dose 0.08 uM, FC vs plate median.
Setting [4] is: dose 0.40 uM, FC vs plate median.
[5] abbreviates: dose 2.00 uM, FC vs plate median.
The mark [6] stands for this setting: dose 10.00 uM, FC vs plate median.
Where [7] appears, read: primary screen, dose 0.08 uM, standard z score.
Where [8] appears, read: primary screen, dose 0.40 uM, standard z score.
The mark [9] stands for this setting: primary screen, dose 2.00 uM, standard z score.
Where [10] appears, read: primary screen, dose 10.00 uM, standard z score.
Setting [11] is: dose 0.08 uM, FC relative to plate median.
Setting [12] is: dose 0.40 uM, FC relative to plate median.
Setting [13] is: dose 2.00 uM, FC relative to plate median.
Where [14] appears, read: dose 10.00 uM, FC relative to plate median.

Counter-ions that a name gives are not always drawn.

The values below come from US20220323406A1, “METHODS AND COMPOSITIONS FOR DIFFERENTIATING STEM CELLS” (Massachusetts Institute of Technology, priority 2019, published 2022).

In the case of `COc1cc2nc(N3CCN(C(=O)C4COc5ccccc5O4)CC3)nc(N)c2cc1OC` (stereo not shown) [Doxazosin Mesylate], the Dose.FC.CTG is reported as 0.072 log2 fold change in the test with ENR+CD organoids (dose 0.08 uM), −0.015 log2 fold change with ENR+CD organoids (dose 0.40 uM), 0.146 log2 fold change with ENR+CD organoids (dose 2.00 uM) and 0.075 log2 fold change with ENR+CD organoids (dose 10.00 uM). Moreover, the Dose.FC.LYZ.S was determined as 0.093 log2 fold change in test [1] (dose 0.08 uM), 0.084 log2 fold change in test [1] (dose 0.40 uM), 0.030 log2 fold change in test [1] (dose 2.00 uM) and 0.015 log2 fold change in test [1] (dose 10.00 uM). The Dose.FC.LYZ.NS is on record as 0.073 log2 fold change in test [2] (primary screen, dose 0.08 uM); 0.044 log2 fold change in test [2] (primary screen, dose 0.40 uM); 0.047 log2 fold change in test [2] (primary screen, dose 2.00 uM); 0.039 log2 fold change in test [2] (primary screen, dose 10.00 uM). Moreover, the Z.LYZ.NS in test [2] (primary screen, standard z score, dose 0.08 uM) is recorded as 0.633; in test [2] (primary screen, standard z score, dose 0.40 uM) it was 0.387; in test [2] (primary screen, standard z score, dose 2.00 uM), 0.413; in test [2] (primary screen, standard z score, dose 10.00 uM) it was 0.340.

`COc1ccc2cc([C@H](C)C(=O)O)ccc2c1` [Naproxen]: the Dose.FC.CTG is given as −0.098 log2 fold change in the test with ENR+CD organoids (setting [3]), −0.068 log2 fold change in the test on ENR+CD organoids (setting [4]), −0.588 log2 fold change in the test with ENR+CD organoids (setting [5]) and −1.282 log2 fold change with ENR+CD organoids (setting [6]). The Dose.FC.LYZ.S in test [1] (setting [3]) is on record as 0.067 log2 fold change; in test [1] (setting [4]), 0.057 log2 fold change; in test [1] (setting [5]) it was −0.215 log2 fold change; in test [1] (setting [6]), −0.215 log2 fold change. Further, the Z.LYZ.NS is recorded as 1.226 in test [2] (setting [7]), 0.930 in test [2] (setting [8]), −0.698 in test [2] (setting [9]) and −1.064 in test [2] (setting [10]). The Dose.FC.LYZ.NS is given as 0.141 log2 fold change in test [2] (primary screen; dose 0.08 uM; FC vs plate median), 0.107 log2 fold change in test [2] (primary screen; dose 0.40 uM; FC vs plate median), −0.080 log2 fold change in test [2] (primary screen; dose 2.00 uM; FC vs plate median) and −0.122 log2 fold change in test [2] (primary screen; dose 10.00 uM; FC vs plate median).

In the case of `C/C(=C\C(=O)Nc1ccccc1C(=O)O)c1ccc2ccccc2c1` [BIBR 1532], the Dose.FC.CTG with ENR+CD organoids (dose 0.08 uM) is reported as 0.223 log2 fold change; in the test on ENR+CD organoids (dose 0.40 uM), −0.047 log2 fold change; in the test on ENR+CD organoids (dose 2.00 uM) it was −0.034 log2 fold change; with ENR+CD organoids (dose 10.00 uM), 0.030 log2 fold change. Further, the “Z.CTG (standard z score)” value in the test with ENR+CD organoids (dose 0.08 uM) is 0.533; with ENR+CD organoids (dose 0.40 uM), −0.113; with ENR+CD organoids (dose 2.00 uM) it was −0.080; in the test with ENR+CD organoids (dose 10.00 uM), 0.072. Moreover, the Dose.FC.LYZ.S in test [1] (dose 0.08 uM) is 0.028 log2 fold change; in test [1] (dose 0.40 uM) it was 0.107 log2 fold change; in test [1] (dose 2.00 uM), −0.081 log2 fold change; in test [1] (dose 10.00 uM), −0.114 log2 fold change. The Dose.FC.LYZ.NS is reported as 0.032 log2 fold change in test [2] (primary screen, dose 0.08 uM); 0.043 log2 fold change in test [2] (primary screen, dose 0.40 uM); −0.013 log2 fold change in test [2] (primary screen, dose 2.00 uM); −0.062 log2 fold change in test [2] (primary screen, dose 10.00 uM). Also, the “Z.LYZ.NS (standard z score)” value is 0.282 in test [2] (primary screen, dose 0.08 uM); 0.377 in test [2] (primary screen, dose 0.40 uM); −0.117 in test [2] (primary screen, dose 2.00 uM); −0.536 in test [2] (primary screen, dose 10.00 uM).

Take `C[S+]([O-])c1ccc(-c2nc(-c3ccc(F)cc3)c(-c3ccncc3)[nH]2)cc1` (stereo not shown) [SB203580]: the Dose.FC.CTG was determined as 0.201 log2 fold change in the test with ENR+CD organoids (setting [11]), 0.149 log2 fold change in the test on ENR+CD organoids (setting [12]), 0.237 log2 fold change in the test with ENR+CD organoids (setting [13]) and 0.182 log2 fold change with ENR+CD organoids (setting [14]). Besides, the Z.CTG in the test with ENR+CD organoids (dose 0.08 uM) stood at 0.479; in the test with ENR+CD organoids (dose 0.40 uM) it was 0.356; with ENR+CD organoids (dose 2.00 uM), 0.567; in the test on ENR+CD organoids (dose 10.00 uM), 0.435. Also, the Dose.FC.LYZ.S in test [1] (setting [11]) amounted to 0.148 log2 fold change; in test [1] (setting [12]), 0.098 log2 fold change; in test [1] (setting [13]) it was 0.077 log2 fold change; in test [1] (setting [14]), 0.069 log2 fold change. In addition, the Dose.FC.LYZ.NS in test [2] (primary screen, dose 0.08 uM, FC relative to plate median) is 0.092 log2 fold change; in test [2] (primary screen, dose 0.40 uM, FC relative to plate median) it was 0.127 log2 fold change; in test [2] (primary screen, dose 2.00 uM, FC relative to plate median), 0.052 log2 fold change; in test [2] (primary screen, dose 10.00 uM, FC relative to plate median), 0.023 log2 fold change. The Z.LYZ.NS worked out at 0.805 in test [2] (setting [7]), 1.109 in test [2] (setting [8]), 0.453 in test [2] (setting [9]) and 0.199 in test [2] (setting [10]).

Consider I-BET151 (GSK1210151A), for which the “Dose.FC.CTG (log2 fold change)” value in the test on ENR+CD organoids (dose 0.08 uM) is recorded as −0.016; with ENR+CD organoids (dose 0.40 uM), −0.174; in the test with ENR+CD organoids (dose 2.00 uM), −0.502; in the test with ENR+CD organoids (dose 10.00 uM), −0.935. In addition, the “Z.CTG (standard z score)” value with ENR+CD organoids (dose 0.08 uM) is −0.039; in the test with ENR+CD organoids (dose 0.40 uM), −0.415; in the test on ENR+CD organoids (dose 2.00 uM) it was −1.200; with ENR+CD organoids (dose 10.00 uM), −2.233. Also, the “Dose.FC.LYZ.S (log2 fold change)” value is recorded as −0.242 in test [1] (dose 0.08 uM), −0.344 in test [1] (dose 0.40 uM), −0.416 in test [1] (dose 2.00 uM) and −0.408 in test [1] (dose 10.00 uM). Also, the “Dose.FC.LYZ.NS (log2 fold change)” value is reported as −0.116 in test [2] (primary screen, dose 0.08 uM); −0.248 in test [2] (primary screen, dose 0.40 uM); −0.299 in test [2] (primary screen, dose 2.00 uM); −0.284 in test [2] (primary screen, dose 10.00 uM). For the same molecule, the “Z.LYZ.NS (standard z score)” value is reported as −1.010 in test [2] (primary screen, dose 0.08 uM); −2.159 in test [2] (primary screen, dose 0.40 uM); −2.601 in test [2] (primary screen, dose 2.00 uM); −2.473 in test [2] (primary screen, dose 10.00 uM).

In the case of `CC(C)(C)Cn1c(N)nc2ccc(-c3[nH]c(C(C)(C)C)nc3-c3ccc(F)cc3)nc21` [LY2228820], the “Dose.FC.CTG (log2 fold change)” value with ENR+CD organoids (dose 0.08 uM) is recorded as −0.299; with ENR+CD organoids (dose 0.40 uM), −0.340; with ENR+CD organoids (dose 2.00 uM), −0.339; in the test on ENR+CD organoids (dose 10.00 uM), −0.332. Besides, the “Z.CTG (standard z score)” value in the test with ENR+CD organoids (dose 0.08 uM) is −0.715; in the test with ENR+CD organoids (dose 0.40 uM) it was −0.812; with ENR+CD organoids (dose 2.00 uM) it was −0.810; in the test on ENR+CD organoids (dose 10.00 uM), −0.793. Moreover, the “Dose.FC.LYZ.S (log2 fold change)” value in test [1] (dose 0.08 uM) was −0.017; in test [1] (dose 0.40 uM), −0.054; in test [1] (dose 2.00 uM), −0.130; in test [1] (dose 10.00 uM), −0.164. For the same molecule, the “Dose.FC.LYZ.NS (log2 fold change)” value in test [2] (primary screen, dose 0.08 uM) is 0.065; in test [2] (primary screen, dose 0.40 uM), −0.100; in test [2] (primary screen, dose 2.00 uM) it was 0.043; in test [2] (primary screen, dose 10.00 uM) it was −0.126. Also, the “Z.LYZ.NS (standard z score)” value in test [2] (primary screen, dose 0.08 uM) is given as 0.569; in test [2] (primary screen, dose 0.40 uM), −0.874; in test [2] (primary screen, dose 2.00 uM), 0.377; in test [2] (primary screen, dose 10.00 uM), −1.099.
